According to patent publication US20260070921A1, “COMPOUND, ENDOPLASMIC RETICULUM STRESS INHIBITOR, PHARMACEUTICAL PRODUCT, OPHTHALMIC AGENT, EYE DROPS, COMPOSITION, AND METHOD FOR PRODUCING COMPOUND” (KYOTO UNIVERSITY, priority 2022, published 2026):

How the values were obtained:
BSA = BSA (Bos taurus, UniProt P02769); assay: Native PAGE analysis of heat-induced BSA denaturation; assay type: biochemical; settings: 75° C. 1 h; compounds 100 μM, PBA 10 mM
Procedure: Samples were subjected to native PAGE analysis using 8% acrylamide gels in 0.1 M Tris-HCl, pH of 7.8 (cathode) and 68 mM glycine, 53 mM Tris-HCl, pH of 8.9 (anode). After staining the gel with Coomassie Brilliant Blue, images were taken using an ImageQuant LAS500 imager (Cytiva).

fibronectin = assay: Western blotting of TGF-β2-induced fibronectin production in iFECD; assay type: cell-based, human; settings: TGF-β2 stimulated iFECD
Procedure: 5 μg of the extracted proteins were separated by SDS-PAGE and transferred to a nitrocellulose membrane. The primary antibodies used were mouse anti-fibronectin antibody (BD Bioscience, 610077) and mouse anti-GAPDH antibody (MBL, M171-3). The secondary antibodies used were peroxidase-labeled anti-rabbit antibody and anti-mouse antibody (GE Healthcare Biosciences, NA931V, NA934V). The primary antibodies were diluted as follows: mouse anti-fibronectin antibody, 15,000-fold; and mouse anti-GAPDH antibody, 5,000-fold. The secondary antibodies were diluted 5,000-fold. For detection, Chemi Lumi ONE Ultra (Nacalai Tesque, 11644-40) was used. The intensity of the detected bands was analyzed using a LAS-4000mini lumino image analyzer (Fujifilm) and ImageQuant™ software (GE Healthcare).

iFECD = assay: TGF-β2-induced cell damage in iFECD (phase-contrast microscopy); assay type: cell-based, human; settings: pretreatment 24 h, TGF-β2 10 ng/ml; compound 1 1-100 μM, compound 6 10 nM-1 μM
Procedure: The medium was removed from the culture dish, in which iFECD was being cultured, and 1×PBS(−) that had been pre-warmed to 37° C. was added to wash the cells. This procedure was performed twice. Again, 1×PBS(−) was added, and the cells were incubated at 37° C. (5% CO2) for 3 minutes. After the PBS(−) was removed, 0.05% Trypsin-EDTA (Nacalai Tesque, 32778-34) was added, and the cells were incubated at 37° C. ([…]) for 5 minutes. Thereafter, the cells were suspended in a medium and centrifuged at 1500 rpm for 3 minutes to recover the cells. The medium used was DMEM (Nacalai Tesque, 08456-36)+10% FBS (Biowest, S1820-500)+1% P/S (Nacalai Tesque, 26252-94).
iFECD cells were seeded in a 12-well plate at a density of 0.5×10^5 cells per well and cultured at 37° C.
The same method as described in the Materials and Methods section in Example 11-1 was used, except that compound 6 was used instead of compound 1, and the amount of iFECD seeded in a 12-well plate was changed from 0.5×10^5 cells per well to 0.9×10^5 cells per well.

BiP = assay: Quantitative RT-PCR of ER stress-related genes, BiP; assay type: cell-based; settings: pretreatment 10 h, tunicamycin 1.0 μg/mL 24 h
Procedure: First, total RNA was isolated using ISOGEN (tradename of Nippon Gene Co., Ltd.). cDNA was prepared using a Prime Script (trade name) first-strand cDNA synthesis kit (TaKaRa). qRT-PCR was performed with Fast SYBR Green Master Mix (Thermo Fisher) on a QuantStudio 3 real-time PCR system (Thermo Fisher). The copy number of each transcript is expressed relative to β-actin. The sequences of the primers (forward and reverse) are as follows: […]
The ability to alleviate endoplasmic reticulum (ER) stress of compound 1 was examined in HEK293 cells. FIGS. 1 and 2 show the biological activity of compound 1 for decreasing cytotoxicity under ER stress. […] Error bars represent s.d. (n=3). Statistical analysis was performed according to one-way ANOVA and a Dunnett's test using R software. […] To further study the effect of compound 1 on ER stress, mRNA levels of typical UPR genes, such as ATF4, s-XPB1, CHOP, BiP, and ERDJ4, were examined. In addition to compound 1, compound 6 was also tested in the same experiment. […] The quantitative RT-PCR was performed according to the method described above. HEK293 cells were treated with compound 1 (100 μM) for 10 hours and then incubated with tunicamycin (1.0 μg/mL) for 24 hours. Isolated RNA samples were subjected to reverse transcription and quantitative RT-PCR. […]

Chain of BSA (P02769 25-607): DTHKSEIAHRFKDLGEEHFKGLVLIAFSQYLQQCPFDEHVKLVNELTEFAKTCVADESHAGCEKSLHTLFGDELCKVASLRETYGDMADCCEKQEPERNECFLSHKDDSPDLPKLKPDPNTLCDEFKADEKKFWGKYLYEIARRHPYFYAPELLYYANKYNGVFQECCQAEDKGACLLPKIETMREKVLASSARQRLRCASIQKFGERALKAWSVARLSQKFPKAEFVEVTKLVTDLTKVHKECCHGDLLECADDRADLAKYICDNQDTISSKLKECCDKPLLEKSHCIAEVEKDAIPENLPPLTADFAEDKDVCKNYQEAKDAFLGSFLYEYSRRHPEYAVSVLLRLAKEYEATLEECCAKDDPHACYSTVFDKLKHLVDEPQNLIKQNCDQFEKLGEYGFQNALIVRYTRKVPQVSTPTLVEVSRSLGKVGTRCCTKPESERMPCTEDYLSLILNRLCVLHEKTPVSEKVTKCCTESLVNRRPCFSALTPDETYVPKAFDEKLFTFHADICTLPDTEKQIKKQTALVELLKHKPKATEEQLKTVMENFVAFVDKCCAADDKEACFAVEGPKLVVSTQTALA

Row | Compound | Inhibition of heat-induced denaturation of BSA (BSA) | Fibronectin production (fibronectin) | Cell damage induced by recombinant human TGF-β2 (iFECD) | Effect on BiP mRNA levels (BiP)
1 | NS(=O)(=O)c1ccc(Nc2ccn3c(n2)nc(=O)c2sc4cc(F)ccc4c23)cc1 [compound 1] | does not exhibit activity to inhibit the thermal denaturation of BSA | almost no production of fibronectin was observed | limited damage to corneal endothelial cells | limited effect
2 | COc1ccc2c(c1)sc1c(=O)nc3nc(Nc4ccc(S(N)(=O)=O)cc4)ccn3c12 [compound 6] | does not exhibit activity to inhibit the thermal denaturation of BSA | almost no production of fibronectin was observed | limited damage to corneal endothelial cells | limited effect
